The source of these data is US20220127281A1, “HETEROARYL COMPOUNDS THAT INHIBIT G12C MUTANT RAS PROTEINS” (AstraZeneca AB, priority 2017, published 2022).

Each structure is given as a SMILES string.

Broadly, the IC50 is the point on the concentration scale where inhibition reaches its midpoint.

The target in assay [1] is T1, GDP loaded biotinylated KRas^G12C protein (Homo sapiens, UniProt P01116, G12C).
T1 construct: biotin (biotinylated); made in house
Briefly: KRasG12C mass spectrometry adducting assay. Particulars: test compound final concentration 10 μM, 4 μM KRasG12C, react for 4 hours. Type of assay: binding. The method in brief:
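Covalent modification quantified as percent adduct: adduct peak area over summed apo plus adduct areas, from MaxEnt1-deconvoluted intact-protein LC–MS spectra. Protein was GDP-bound biotinylated KRasG12C in HEPES pH 7.5 buffer with 5 mM MgCl2 and 150 mM NaCl.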

Assay [2] concerns the target T1, GDP loaded biotinylated KRas^G12C protein. Briefly: KRasG12C functional assay. It is filed as biochemical. Particulars: HTRF FRET readout of SOS-mediated nucleotide exchange and GST-Raf RBD binding; samples incubated for 4 hrs; read-out: KRasG12C functional assay IC50 value. The method in brief: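 Biotinylated GDP-loaded KRasG12C exchange driven by 0.08 μM SOS with 0.6 μM GTPγS, read by HTRF between europium and XL665 as active KRas binds 20 nM GST-Raf RBD. Buffer: 20 mM HEPES pH 7.5, 5 mM MgCl2, 150 mM NaCl, 0.01% Tween 20. IC50 from normalised FRET dose-response fits.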
In general terms: In TR-FRET formats the signal depends on donor and acceptor labels being close together.

T1 sequence (P01116 1-188 isoform P01116-2 G12C): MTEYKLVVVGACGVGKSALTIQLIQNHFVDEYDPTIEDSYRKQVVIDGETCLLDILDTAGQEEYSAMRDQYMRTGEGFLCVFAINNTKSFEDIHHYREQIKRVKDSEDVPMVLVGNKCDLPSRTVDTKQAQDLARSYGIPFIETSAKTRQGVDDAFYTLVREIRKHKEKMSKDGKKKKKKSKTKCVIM

Turning to `C=CC(=O)N1CCN2c3ncnc4cc(-c5cnccc5C#N)c(Cl)c(c34)OC[C@@H]2C1` [Example 67, 3-[(8aS)-10-Acryloyl-6-chloro-8,8a,9,10,11,12-hexahydropyrazino[2′,1′:3,4][1,4]oxazepino[5,6,7-de]quinazolin-5-yl]pyridine-4-carbonitrile], in assay [1], the “KRasG12C M.S. Binding Mean adduct %” value is on record as 17%. Further, the half-maximal inhibitory concentration (IC50) in assay [2] was 6530 nM.

Turning to `C=CC(=O)N1CCN2c3ncnc4cc(-c5ccccc5C#N)c(Cl)c(c34)OC[C@@H]2C1` [Example 68, 2-[(8aS)-10-Acryloyl-6-chloro-8,8a,9,10,11,12-hexahydropyrazino[2′,1′:3,4][1,4]oxazepino[5,6,7-de]quinazolin-5-yl]benzonitrile], in assay [1], the “KRasG12C M.S. Binding Mean adduct %” value stood at 62%. Moreover, in assay [2], the IC50 was 1470 nM.

For `C=CC(=O)N1CCN2c3nc(N4CCOCC4)nc4cc(-c5c(C)ccc6[nH]ncc56)c(Cl)c(c34)OC[C@@H]2C1` [Example 70, 1-[(8aS)-6-chloro-5-(5-methyl-1H-indazol-4-yl)-2-(morpholin-4-yl)-8a,9,11,12-tetrahydropyrazino[2′,1′:3,4][1,4]oxazepino[5,6,7-de]quinazolin-10 (8H)-yl]prop-2-en-1-one], the “KRasG12C M.S. Binding Mean adduct %” value in assay [1] is 67%. For the same compound, the concentration for half-maximal inhibition (IC50) in assay [2] worked out at 445 nM.

Consider `C=CC(=O)N1CCN2c3nc(N4CC(N(C)C)C4)nc4cc(-c5c(C)ccc6[nH]ncc56)c(Cl)c(c34)OC[C@@H]2C1` [Example 75, 1-((8aS)-6-chloro-2-(3-(dimethylamino)azetidin-1-yl)-5-(5-methyl-1H-indazol-4-yl)-8a,9,11,12-tetrahydropyrazino[2′,1′:3,4][1,4]oxazepino[5,6,7-de]quinazolin-10 (8H)-yl)prop-2-en-1-one], for which the “KRasG12C M.S. Binding Mean adduct %” value in assay [1] is recorded as 57%. Also, the IC50 in assay [2] worked out at 19 nM.

As for `C=CC(=O)N1CCN2c3nc(NCCN(C)C)nc4cc(-c5c(C)ccc6[nH]ncc56)c(Cl)c(c34)OC[C@@H]2C1` [Example 78, 1-((8aS)-6-Chloro-2-((2-(dimethylamino)ethyl)amino)-5-(5-methyl-1H-indazol-4-yl)-8a,9,11,12-tetrahydropyrazino[2′,1′:3,4][1,4]oxazepino[5,6,7-de]quinazolin-10 (8H)-yl)prop-2-en-1-one], the “KRasG12C M.S. Binding Mean adduct %” value in assay [1] was 81%. Moreover, the IC50 in assay [2] came to 37 nM.
